Source: patent US10722501B2 (BAYER AKTIENGESELLSCHAFT, priority 2016, dated 2020)

target: T1, recombinant full-length human prolyl endopeptidase (PREP) (Homo sapiens, UniProt P48147); experiment: Biochemical human prolyl endopeptidase (PREP) assay with fluorescently labelled substrate; conditions: substrate Z-Gly-Pro-AMC 50 μM, 32° C., 60 min; some as mean values from multiple independent determinations
T1 construct: To recombinant full-length human prolyl endopeptidase (PREP, R&D-Systems, 4308-SE); purchased R&D-Systems 4308-SE
T1 sequence (P48147 1-710): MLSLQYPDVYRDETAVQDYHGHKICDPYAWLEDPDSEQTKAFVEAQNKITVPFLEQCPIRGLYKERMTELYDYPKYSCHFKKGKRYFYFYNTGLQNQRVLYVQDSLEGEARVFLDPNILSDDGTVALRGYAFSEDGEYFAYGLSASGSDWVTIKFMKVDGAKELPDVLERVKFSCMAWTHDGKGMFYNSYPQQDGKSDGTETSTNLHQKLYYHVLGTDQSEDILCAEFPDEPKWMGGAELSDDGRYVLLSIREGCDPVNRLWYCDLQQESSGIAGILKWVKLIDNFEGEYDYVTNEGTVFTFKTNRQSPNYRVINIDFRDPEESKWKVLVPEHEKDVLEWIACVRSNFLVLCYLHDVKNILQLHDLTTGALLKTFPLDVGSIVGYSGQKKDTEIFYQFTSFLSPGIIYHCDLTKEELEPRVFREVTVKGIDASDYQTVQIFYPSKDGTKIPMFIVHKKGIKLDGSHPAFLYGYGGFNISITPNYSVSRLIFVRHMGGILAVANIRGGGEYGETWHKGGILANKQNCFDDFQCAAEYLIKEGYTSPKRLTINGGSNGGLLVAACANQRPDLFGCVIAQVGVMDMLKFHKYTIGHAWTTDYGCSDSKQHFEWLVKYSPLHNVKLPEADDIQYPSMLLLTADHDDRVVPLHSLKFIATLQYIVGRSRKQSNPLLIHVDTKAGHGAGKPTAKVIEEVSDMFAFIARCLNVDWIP
How it was run: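 0.4 nM (final, example) recombinant PREP in pH 7.5 Tris buffer with EDTA, GSH, BSA and Brij-35; compounds at 1 nM to 30 μM. Reaction started with 50 μM Z-Gly-Pro-AMC and followed by fluorescence (ex 360/em 465 nm) at 32° C for 60 min. IC50 interpolated from percent activity based on initial slopes.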

SMILES	IC50 [nM]
O=C([C@@H]1CCCc2nn(Cc3ccnc(C(F)(F)F)c3F)c(=O)n21)N1CC(O)C1 [Example 481, (5S)-2-{[3-Fluoro-2-(trifluoromethyl)pyridin-4-yl]methyl}-5-[(3-hydroxyazetidin-1-yl)carbonyl]-5,6,7,8-tetrahydro[1,2,4]triazolo[4,3-a]pyridin-3(2H)-one]	27.5
O=C([C@@H]1CCCc2nn(Cc3ccnc(C(F)(F)F)c3F)c(=O)n21)N1CCC(F)(F)C1 [Example 482, (5S)-5-[(3,3-Difluoropyrrolidin-1-yl)carbonyl]-2-{[3-fluoro-2-(trifluoromethyl)pyridin-4-yl]methyl}-5,6,7,8-tetrahydro[1,2,4]triazolo[4,3-a]pyridin-3(2H)-one]	2.8
O=C([C@@H]1CCCc2nn(Cc3ccnc(C(F)(F)F)c3F)c(=O)n21)N1CC(F)C1 [Example 483, (5S)-5-[(3-Fluoroazetidin-1-yl)carbonyl]-2-{[3-fluoro-2-(trifluoromethyl)pyridin-4-yl]methyl}-5,6,7,8-tetrahydro[1,2,4]triazolo[4,3-a]pyridin-3(2H)-one]	2.1
O=C([C@@H]1CCCc2nn(Cc3ccnc(C(F)(F)F)c3F)c(=O)n21)N1CC[C@H](F)C1 [Example 484, (5S)-5-{[(3S)-3-Fluoropyrrolidin-1-yl]carbonyl}-2-{[3-fluoro-2-(trifluoromethyl)pyridin-4-yl]methyl}-5,6,7,8-tetrahydro[1,2,4]triazolo[4,3-a]pyridin-3(2H)-one]	0.295
O=C([C@@H]1CCCc2nn(Cc3ccnc(C(F)(F)F)c3F)c(=O)n21)N1CCSC1 [Example 485, (5S)-2-{[3-Fluoro-2-(trifluoromethyl)pyridin-4-yl]methyl}-5-(1,3-thiazolidin-3-ylcarbonyl)-5,6,7,8-tetrahydro[1,2,4]triazolo[4,3-a]pyridin-3(2H)-one]	4.3
O=C([C@@H]1CCCc2nn(Cc3ccc(F)cc3F)c(=O)n21)N1CC(F)C1 [Example 486, (5S)-2-(2,4-Difluorobenzyl)-5-[(3-fluoroazetidin-1-yl)carbonyl]-5,6,7,8-tetrahydro[1,2,4]triazolo[4,3-a]pyridin-3(2H)-one]	0.465
O=C([C@@H]1CCCc2nn(Cc3ccc(F)cc3F)c(=O)n21)N1CCC(F)(F)C1 [Example 487, (5S)-2-(2,4-Difluorobenzyl)-5-[(3,3-difluoropyrrolidin-1-yl)carbonyl]-5,6,7,8-tetrahydro[1,2,4]triazolo[4,3-a]pyridin-3(2H)-one]	0.725
O=C([C@@H]1CCCc2nn(Cc3ccc(F)cc3F)c(=O)n21)N1CC[C@H](F)C1 [Example 488, (5S)-2-(2,4-Difluorobenzyl)-5-{[(3S)-3-fluoropyrrolidin-1-yl]carbonyl}-5,6,7,8-tetrahydro[1,2,4]triazolo[4,3-a]pyridin-3(2H)-one]	0.15
O=C([C@@H]1CCCc2nn(Cc3ccc(F)cc3F)c(=O)n21)N1C[C@@H](F)[C@@H](F)C1 [Example 489, (5S)-2-(2,4-Difluorobenzyl)-5-{[(3R,4S)-3,4-difluoropyrrolidin-1-yl]carbonyl}-5,6,7,8-tetrahydro[1,2,4]triazolo[4,3-a]pyridin-3(2H)-one]	0.11
O=C([C@@H]1CCCc2nn(Cc3cc(F)c(F)cc3F)c(=O)n21)N1CCC(F)(F)C1 [Example 490, (5S)-5-[(3,3-Difluoropyrrolidin-1-yl)carbonyl]-2-(2,4,5-trifluorobenzyl)-5,6,7,8-tetrahydro[1,2,4]triazolo[4,3-a]pyridin-3(2H)-one]	0.38
O=C([C@@H]1CCCc2nn(Cc3cc(F)c(F)cc3F)c(=O)n21)N1CC(F)C1 [Example 491, (5S)-5-[(3-Fluoroazetidin-1-yl)carbonyl]-2-(2,4,5-trifluorobenzyl)-5,6,7,8-tetrahydro[1,2,4]triazolo[4,3-a]pyridin-3(2H)-one]	0.44
O=C([C@@H]1CCCc2nn(Cc3cc(F)c(F)cc3F)c(=O)n21)N1C[C@@H](F)[C@@H](F)C1 [Example 492, (5S)-5-{[(3R,4S)-3,4-Difluoropyrrolidin-1-yl]carbonyl}-2-(2,4,5-trifluorobenzyl)-5,6,7,8-tetrahydro[1,2,4]triazolo[4,3-a]pyridin-3(2H)-one]	0.52
O=C([C@@H]1CCCc2nn(Cc3cc(F)c(F)cc3F)c(=O)n21)N1CC[C@H](F)C1 [Example 493, (5S)-5-{[(3S)-3-Fluoropyrrolidin-1-yl]carbonyl}-2-(2,4,5-trifluorobenzyl)-5,6,7,8-tetrahydro[1,2,4]triazolo[4,3-a]pyridin-3(2H)-one]	0.32
O=C([C@@H]1CCCc2nn(Cc3cc(C(F)(F)F)nc4ccccc34)c(=O)n21)N1CC(F)C1 [Example 494, (5S)-5-[(3-Fluoroazetidin-1-yl)carbonyl]-2-{[2-(trifluoromethyl)quinolin-4-yl]methyl}-5,6,7,8-tetrahydro[1,2,4]triazolo[4,3-a]pyridin-3(2H)-one]	0.91
O=C([C@@H]1CCCc2nn(Cc3cc(C(F)(F)F)nc4ccccc34)c(=O)n21)N1CC(O)C1 [Example 495, (5S)-5-[(3-Hydroxyazetidin-1-yl)carbonyl]-2-{[2-(trifluoromethyl)quinolin-4-yl]methyl}-5,6,7,8-tetrahydro[1,2,4]triazolo[4,3-a]pyridin-3(2H)-one]	16.5
O=C([C@@H]1CCCc2nn(Cc3cc(C(F)(F)F)nc4ccccc34)c(=O)n21)N1CC[C@H](O)C1 [Example 496, (5S)-5-{[(3S)-3-Hydroxypyrrolidin-1-yl]carbonyl}-2-{[2-(trifluoromethyl)quinolin-4-yl]methyl}-5,6,7,8-tetrahydro[1,2,4]triazolo[4,3-a]pyridin-3(2H)-one]	18
O=C([C@@H]1CCCc2nn(Cc3cc(C(F)(F)F)nc4ccccc34)c(=O)n21)N1C[C@@H](F)[C@@H](F)C1 [Example 497, (5S)-5-{[(3R,4S)-3,4-Difluoropyrrolidin-1-yl]carbonyl}-2-{[2-(trifluoromethyl)quinolin-4-yl]methyl}-5,6,7,8-tetrahydro[1,2,4]triazolo[4,3-a]pyridin-3(2H)-one]	0.18
O=C([C@@H]1CCCc2nn(Cc3cc(C(F)(F)F)nc4ccc(F)cc34)c(=O)n21)N1CCCC1 [Example 498, (5S)-2-{[6-Fluoro-2-(trifluoromethyl)quinolin-4-yl]methyl}-5-(pyrrolidin-1-ylcarbonyl)-5,6,7,8-tetrahydro[1,2,4]triazolo[4,3-a]pyridin-3(2H)-one]	0.44
O=C([C@@H]1CCCc2nn(Cc3nc(C(F)(F)F)no3)c(=O)n21)N1CC(F)(F)C1 [Example 499, (5S)-5-[(3,3-Difluoroazetidin-1-yl)carbonyl]-2-{[3-(trifluoromethyl)-1,2,4-oxadiazol-5-yl]methyl}-5,6,7,8-tetrahydro[1,2,4]triazolo[4,3-a]pyridin-3(2H)-one]	110
O=C([C@@H]1CCCc2nn(Cc3nc(C(F)(F)F)no3)c(=O)n21)N1C[C@@H](F)[C@@H](F)C1 [Example 500, (5S)-5-{[(3R,4S)-3,4-Difluoropyrrolidin-1-yl]carbonyl}-2-{[3-(trifluoromethyl)-1,2,4-oxadiazol-5-yl]methyl}-5,6,7,8-tetrahydro[1,2,4]triazolo[4,3-a]pyridin-3(2H)-one]	5.15
O=C([C@@H]1CCCc2nn(Cc3nc(C(F)(F)F)no3)c(=O)n21)N1CCC(F)(F)C1 [Example 501, (5S)-5-[(3,3-Difluoropyrrolidin-1-yl)carbonyl]-2-{[3-(trifluoromethyl)-1,2,4-oxadiazol-5-yl]methyl}-5,6,7,8-tetrahydro[1,2,4]triazolo[4,3-a]pyridin-3(2H)-one]	25.5
O=C([C@@H]1CCCc2nn(Cc3ccc(C(F)(F)F)nc3)c(=O)n21)N1CCSC1 [Example 503, (5S)-5-(1,3-Thiazolidin-3-ylcarbonyl)-2-{[6-(trifluoromethyl)pyridin-3-yl]methyl}-5,6,7,8-tetrahydro[1,2,4]triazolo[4,3-a]pyridin-3(2H)-one]	2
O=C([C@@H]1CCCc2nn(Cc3ccc(Br)cn3)c(=O)n21)N1C[C@@H](F)[C@@H](F)C1 [Example 504, (5S)-2-[(5-Bromopyridin-2-yl)methyl]-5-{[(3R,4S)-3,4-difluoropyrrolidin-1-yl]carbonyl}-5,6,7,8-tetrahydro[1,2,4]triazolo[4,3-a]pyridin-3(2H)-one]	1.8
O=C([C@@H]1CCCc2nn(Cc3ccc(Cl)cn3)c(=O)n21)N1CCSC1 [Example 505, (5S)-2-[(5-Chloropyridin-2-yl)methyl]-5-(1,3-thiazolidin-3-ylcarbonyl)-5,6,7,8-tetrahydro[1,2,4]triazolo[4,3-a]pyridin-3(2H)-one]	1.4
